Where two headings read alike, the source gives them in different places.
Experiments:
P-glycoprotein (Pgp) = P-glycoprotein (Pgp) (Homo sapiens (Human), UniProt P08183); assay: MDCK-MDR1 Pgp assessment; assay type: in vitro ADME; settings: for Pgp substrate status: conclusion from Table 3; for efflux ratio at 2 h, 1 μM: dog, MDCK-MDR1 cells, 37° C. for 2 hours, read-out: PgpER
Description: Assay c): MDCK-MDR1 Pgp Assessment
Efflux transport mediated by P-glycoprotein (Pgp) was assessed by MDCK-MDR1 cells. The final concentrations of test compounds and control compound were at 1 μM. The multi-well insert plate was incubated at 37° C. for 2 hours.

[1] = Mouse SOA study for brain penetration; assay type: in vivo; settings: for Mouse Kpu, u: male balb/c mice, oral 10 mg/kg, AUC 0-7 hr brain/plasma, unbound; for brain penetration in vivo: mouse SOA study, conclusion from Table 3; for Kp: male, balb/c, mouse, brain, po, 10 mg/kg, read-out: Mouse Kpu, u
Description: Assay e) Mouse SOA Study for Brain Penetration
Six non-fasted male balb/c mice (6-8 weeks, 20-25 g) were orally administered at 10 mg/kg, using a suspension formulation of 1% methylcellulose (MC) in deionized water. Brain and blood samples were collected at 0.25, 0.5, 1, 2, 4, 7 hours after dose. Plasma was obtained by centrifuging the blood samples for 5 min at 4000 g and 4° C. Brain tissue was homogenized following addition of four times the volume of phosphate-buffered saline (pH 7.4). Quantification of the compound in plasma and brain was undertaken by LC-MS/MS. Area under the curve (AUC) was determined from 0 to 7 hours in the brain tissue and plasma.
Total brain to plasma concentration ratio Kp was determined using the equation: Brain Kp=AUC0-7 hr brain/AUC0-7 hr plasma
Unbound brain to plasma ratio was determined using the equation: Brain Kp,uu=Kp*fu,brain/fu,plasma
Unbound fraction (fu, plasma) and unbound fraction (fu, brain) were obtained from in vitro equilibrium dialysis by using plasma and brain homogenate, respectively.

BCRP = BCRP (Homo sapiens (Human), UniProt Q9UNQ0); assay: Caco-2 BCRP assessment; assay type: in vitro ADME; settings: for BCRP ER: Caco-2 cells, 1 μM, efflux ratio -/+ novobiocin 30 μM, >2 = BCRP substrate; for BCRP substrate status: conclusion from Table 3
BCRP, sequence (Q9UNQ0 whole entry): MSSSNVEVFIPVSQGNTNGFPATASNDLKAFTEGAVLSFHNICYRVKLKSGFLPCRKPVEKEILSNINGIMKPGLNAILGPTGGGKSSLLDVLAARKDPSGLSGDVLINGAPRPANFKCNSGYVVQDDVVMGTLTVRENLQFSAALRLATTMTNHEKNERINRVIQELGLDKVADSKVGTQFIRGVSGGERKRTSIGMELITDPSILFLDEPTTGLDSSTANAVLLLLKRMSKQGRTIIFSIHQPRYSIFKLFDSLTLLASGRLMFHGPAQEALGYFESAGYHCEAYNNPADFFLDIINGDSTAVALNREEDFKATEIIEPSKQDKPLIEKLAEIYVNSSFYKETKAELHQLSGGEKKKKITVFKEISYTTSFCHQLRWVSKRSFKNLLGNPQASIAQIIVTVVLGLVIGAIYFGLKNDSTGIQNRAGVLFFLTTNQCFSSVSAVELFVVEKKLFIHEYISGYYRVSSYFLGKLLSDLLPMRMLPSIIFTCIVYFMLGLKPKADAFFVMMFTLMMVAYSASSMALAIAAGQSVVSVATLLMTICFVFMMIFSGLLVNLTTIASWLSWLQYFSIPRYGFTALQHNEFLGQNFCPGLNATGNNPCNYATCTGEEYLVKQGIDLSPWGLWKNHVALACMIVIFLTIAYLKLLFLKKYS
Description: Assay d): Caco-2 BCRP Assessment
Caco-2 cells were used to study efflux transport mediated by BCRP. Rate of drug transport by BCRP was determined in the presence and absence of novobiocin, a strong inhibitor of BCRP, which was added to both apical and basolateral compartment sat a final concentration of 30 μM. The final concentrations of test compounds and control compound were at 1 μM. The multi-well insert plate was incubated at 37° C. for 2 hours. Efflux ratio (−inhibitor/+inhibitor)>2 was considered to be a BCRP substrate.

hERG channel = hERG channel (Homo sapiens (Human), UniProt Q12809); assay: hERG inhibition, manual patch clamp in HEK 293 cells; assay type: cell-based; settings: for IC50: HEK 293 cell line stably expressing hERG channel, manual patch clamp; for hERG liability: conclusion from Table 3
hERG channel, sequence (Q12809 whole entry): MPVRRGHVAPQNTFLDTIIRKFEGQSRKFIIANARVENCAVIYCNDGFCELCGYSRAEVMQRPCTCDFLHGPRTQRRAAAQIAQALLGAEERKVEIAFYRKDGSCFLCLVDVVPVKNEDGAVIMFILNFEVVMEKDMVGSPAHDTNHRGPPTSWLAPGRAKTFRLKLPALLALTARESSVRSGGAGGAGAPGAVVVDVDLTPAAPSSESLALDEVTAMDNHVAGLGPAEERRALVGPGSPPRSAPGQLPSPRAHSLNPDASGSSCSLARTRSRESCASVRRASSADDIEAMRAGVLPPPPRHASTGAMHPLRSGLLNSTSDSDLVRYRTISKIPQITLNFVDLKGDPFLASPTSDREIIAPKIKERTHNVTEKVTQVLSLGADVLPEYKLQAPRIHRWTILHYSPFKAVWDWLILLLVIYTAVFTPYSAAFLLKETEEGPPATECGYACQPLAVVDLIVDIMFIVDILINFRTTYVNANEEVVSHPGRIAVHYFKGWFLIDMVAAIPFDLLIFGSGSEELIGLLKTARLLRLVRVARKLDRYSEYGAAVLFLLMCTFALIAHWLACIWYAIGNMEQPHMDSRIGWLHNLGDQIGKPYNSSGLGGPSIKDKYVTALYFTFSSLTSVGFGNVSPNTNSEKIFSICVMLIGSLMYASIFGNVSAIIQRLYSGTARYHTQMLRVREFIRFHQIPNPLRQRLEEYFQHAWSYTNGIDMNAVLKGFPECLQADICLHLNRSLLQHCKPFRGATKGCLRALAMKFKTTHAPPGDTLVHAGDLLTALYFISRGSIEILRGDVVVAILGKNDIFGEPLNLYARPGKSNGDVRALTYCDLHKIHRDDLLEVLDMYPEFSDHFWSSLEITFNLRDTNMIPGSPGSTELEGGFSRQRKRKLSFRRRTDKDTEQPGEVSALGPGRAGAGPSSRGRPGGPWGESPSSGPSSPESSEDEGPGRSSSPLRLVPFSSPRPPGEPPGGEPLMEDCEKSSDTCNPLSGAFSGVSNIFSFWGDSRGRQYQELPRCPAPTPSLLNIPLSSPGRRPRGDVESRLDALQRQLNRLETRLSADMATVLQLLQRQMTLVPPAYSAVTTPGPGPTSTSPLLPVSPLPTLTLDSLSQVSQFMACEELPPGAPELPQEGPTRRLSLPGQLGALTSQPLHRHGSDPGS
Description: Assay f): hERG Inhibition Inhibition of hERG channel was conducted in HEK 293 cell line stably expressing hERG channel by manual patch clamp.

HER2 = HER2 (Homo sapiens (Human), UniProt P04626); assay: BT474 cellular assay (HER2 inhibition), phospho-HER2 ELISA; assay type: cell-based; settings: inhibition of phosphor HER2, BT474 cells, 2 hours compound incubation
HER2, sequence (P04626 23-1255): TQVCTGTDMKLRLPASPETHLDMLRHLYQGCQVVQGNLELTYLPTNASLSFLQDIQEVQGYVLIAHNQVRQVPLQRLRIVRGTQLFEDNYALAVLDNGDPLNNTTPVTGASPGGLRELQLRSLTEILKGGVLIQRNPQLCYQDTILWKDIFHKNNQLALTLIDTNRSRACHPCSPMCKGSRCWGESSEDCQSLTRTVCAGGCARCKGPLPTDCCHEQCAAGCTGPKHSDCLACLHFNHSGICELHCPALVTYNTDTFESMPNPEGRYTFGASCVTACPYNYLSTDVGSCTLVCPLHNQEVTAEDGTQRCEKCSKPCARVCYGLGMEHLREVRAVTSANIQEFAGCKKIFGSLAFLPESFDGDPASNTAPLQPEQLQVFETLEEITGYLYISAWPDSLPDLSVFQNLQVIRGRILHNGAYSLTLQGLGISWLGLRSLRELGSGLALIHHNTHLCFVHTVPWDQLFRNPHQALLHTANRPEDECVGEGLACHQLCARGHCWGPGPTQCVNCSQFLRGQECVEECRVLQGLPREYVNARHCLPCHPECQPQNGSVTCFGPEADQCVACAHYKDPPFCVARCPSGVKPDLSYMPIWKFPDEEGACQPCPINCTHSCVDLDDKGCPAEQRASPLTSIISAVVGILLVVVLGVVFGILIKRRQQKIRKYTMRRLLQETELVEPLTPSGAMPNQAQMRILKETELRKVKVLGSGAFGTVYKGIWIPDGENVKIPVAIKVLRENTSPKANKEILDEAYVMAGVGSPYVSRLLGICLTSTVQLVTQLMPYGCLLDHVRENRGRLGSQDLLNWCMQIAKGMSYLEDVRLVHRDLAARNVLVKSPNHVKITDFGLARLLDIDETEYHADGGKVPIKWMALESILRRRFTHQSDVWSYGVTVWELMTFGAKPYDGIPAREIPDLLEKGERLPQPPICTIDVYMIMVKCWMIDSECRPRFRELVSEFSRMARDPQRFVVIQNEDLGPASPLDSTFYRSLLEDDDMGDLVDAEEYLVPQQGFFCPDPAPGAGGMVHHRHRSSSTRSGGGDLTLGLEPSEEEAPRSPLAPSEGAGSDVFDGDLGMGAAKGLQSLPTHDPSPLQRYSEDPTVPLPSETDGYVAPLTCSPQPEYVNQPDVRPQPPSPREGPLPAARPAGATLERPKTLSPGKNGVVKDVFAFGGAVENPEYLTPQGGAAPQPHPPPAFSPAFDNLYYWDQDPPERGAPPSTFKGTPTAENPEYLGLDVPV
Method in brief: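 BT474 cells seeded and grown 24 h, then exposed to compound for 2 h at 37 °C and lysed. Lysates assayed for phospho-HER2 by sandwich ELISA with TMB detection, absorbance read at 450 and 570 nm; IC50 values derived.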

wt-EGFR = wt-EGFR (Homo sapiens (Human), UniProt P00533); assay: NCI H838 cellular assay (wt-EGFR inhibition), phospho-EGFR ELISA; assay type: cell-based
wt-EGFR, sequence (P00533 25-1210): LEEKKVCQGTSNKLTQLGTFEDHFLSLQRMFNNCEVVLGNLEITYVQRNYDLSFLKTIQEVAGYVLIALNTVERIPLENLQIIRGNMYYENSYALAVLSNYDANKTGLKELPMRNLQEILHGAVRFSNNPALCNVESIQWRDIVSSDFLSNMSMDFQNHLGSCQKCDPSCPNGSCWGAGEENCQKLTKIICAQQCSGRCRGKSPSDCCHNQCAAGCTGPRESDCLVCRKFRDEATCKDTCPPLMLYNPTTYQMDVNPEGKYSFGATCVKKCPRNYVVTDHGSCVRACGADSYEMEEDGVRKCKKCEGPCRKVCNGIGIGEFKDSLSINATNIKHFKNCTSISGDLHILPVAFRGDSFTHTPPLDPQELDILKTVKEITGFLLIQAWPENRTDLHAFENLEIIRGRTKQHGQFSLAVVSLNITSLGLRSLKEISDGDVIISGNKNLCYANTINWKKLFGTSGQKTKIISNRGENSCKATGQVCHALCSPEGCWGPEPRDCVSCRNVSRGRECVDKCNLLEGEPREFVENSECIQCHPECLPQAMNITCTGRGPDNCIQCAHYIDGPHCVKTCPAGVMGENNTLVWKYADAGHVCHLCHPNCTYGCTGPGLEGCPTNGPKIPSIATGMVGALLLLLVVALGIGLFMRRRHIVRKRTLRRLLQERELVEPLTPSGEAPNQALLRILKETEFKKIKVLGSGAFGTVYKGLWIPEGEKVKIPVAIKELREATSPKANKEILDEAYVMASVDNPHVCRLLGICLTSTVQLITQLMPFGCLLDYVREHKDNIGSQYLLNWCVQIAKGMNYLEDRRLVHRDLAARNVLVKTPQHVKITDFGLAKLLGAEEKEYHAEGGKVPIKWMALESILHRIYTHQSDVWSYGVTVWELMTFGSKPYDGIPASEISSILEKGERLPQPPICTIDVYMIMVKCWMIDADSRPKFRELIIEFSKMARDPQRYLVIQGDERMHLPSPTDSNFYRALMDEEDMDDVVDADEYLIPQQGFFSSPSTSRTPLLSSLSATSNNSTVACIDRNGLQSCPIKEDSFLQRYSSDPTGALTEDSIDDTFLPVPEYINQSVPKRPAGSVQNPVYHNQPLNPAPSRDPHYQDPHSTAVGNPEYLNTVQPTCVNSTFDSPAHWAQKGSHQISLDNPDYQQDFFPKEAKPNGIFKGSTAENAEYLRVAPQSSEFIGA
Description: Assay b) NCI H838 Cellular Assay (Wt-EGFR Inhibition) Inhibition of phosphor wt-EGFR was determined by enzyme-linked immunosorbent assay (ELISA) in NCI H838 cells (ATCC, catalog number CRL-5844). Human Phospho-EGFR DuoSet IC ELISA kit was purchased from R&D systems (catalog number DYC1095). Day 1: When the cells reach 70-90% confluence, cells were trypsinized and re-suspended. 5000 cells per well were seeded to a 384-well plate. The plate was incubated at 37° C. with 5% CO2 for 24 hours. Day 2: Cell culture medium was replaced with 40 μL FBS-Free RPMI1640. After 2 hours of starvation, the 384-well plate was dosed with 40 nL of compounds by Echo from source plate and the 384-well plate was incubated at 37° C. with 5% CO2 for 2 hours. After 2 hours of incubation with compounds, EGF (final concentration at 100 ng/ml) was added to the plate which was incubated at 37° C. with 5% CO2 for 5-10 minutes. Medium was discarded from the plate and 30 μl/well lysis buffer was added to the plate which was incubated at 4° C. for 10 minutes. The cell lysates can be stored at −80° C. in cell plates but must be thawed at room temperature for at least 30 minutes prior to use and continuing the assay. ELISA plate was coated by diluting capture antibody to 4 μg/ml with PBS, and 25 μl/well was dispensed to 384 well UltraCruz® ELISA Plate, which was incubated at 4° C. overnight. Day 3: After the plates were washed three times with 100 μl/well of wash buffer, the plates were blocked by adding 75 μl of Block Buffer to each well and incubated at room temperature for 3 hours. After the plates were washed three times with 100 μl/well of wash buffer, 20 μl cell lysate was transferred to the blocked ELISA plate which was incubated for 2 hours at room temperature. After the plates were washed three times with 100 μl/well of wash buffer, 25 μl/well detection antibody (dilute 1 in 900 in assay buffer) was added the plate which was incubated for 2 hours, protected from light. After washed three times, 25 μl/well TMB substrate was added to the ELISA plate which was incubated for about 10-15 min, protected from light before addition of 25 μl/well stop solution. Absorbance was read at 450 nm and 570 nm within 30 minutes.

[2] = literature values; cited from earlier work
Pgp = settings: literature statement; cited from earlier work

Row | Pgp substrate status (P-glycoprotein (Pgp)) | efflux ratio at 2 h, 1 μM (P-glycoprotein (Pgp)) | Mouse Kpu, u [1] | brain penetration in vivo [1] | BCRP ER (BCRP) | IC50 (HER2) [nM] | IC50 (wt-EGFR) [nM] | Kp [1] | BCRP substrate status (BCRP) | IC50 (wt-EGFR; inhibition of phosphor wt-EGFR, NCI H838 cells, EGF 100 ng/ml) [nM] | Structure (SMILES) | IC50 (hERG channel) [nM] | hERG liability (hERG channel) | brain to blood ratio (Kp) [2] | Pgp substrate status (Pgp)
1 | strong Pgp substrates | > 18.6 | too low to calculate | not brain penetrable in vivo | 1.4 | – | – | – | – | – | CCOc1cc2ncc(C#N)c(Nc3ccc(OCc4ccccn4)c(Cl)c3)c2cc1NC(=O)/C=C/CN(C)C [Reference compound 2, Neratinib, reference compound] | > 10000 | – | – | –
2 | not Pgp or BCRP substrates | 0.81 | – | brain penetrable | 1.8 | 11 | 440 | 0.19 | not Pgp or BCRP substrates | – | [2H]C([2H])([2H])Oc1ccc2ncnc(Nc3ccc(Oc4cc5ncnn5cn4)c(C)c3)c2c1O[C@@H]1CCN(C)CC1(F)F [Example 36, (R)—N-(4-([1,2,4]-triazolo[1,5-c]pyrimidin-7-yloxy)-3-methylphenyl)-5-((3,3-difluoro-1-methylpiperidin-4-yl)oxy)-6-(methoxy-d3)quinazolin-4-amine] | > 10000 | do not show hERG liability | – | –
3 | not Pgp or BCRP substrates | 1.3 | – | brain penetrable | 0.68 | 9.5 | 12000 | 0.26 | not Pgp or BCRP substrates | – | COc1ccc2ncnc(Nc3ccc(Oc4cc5ncnn5cn4)c(C)c3)c2c1O[C@@H]1CCN(C)CC1(F)F [Example 31, (R)—N-(4-([1,2,4]triazolo[1,5-c]pyrimidin-7-yloxy)-3-methylphenyl)-5-((3,3-difluoro-1-methylpiperidin-4-yl)oxy)-6-methoxyquinazolin-4-amine] | 18000 | do not show hERG liability | – | –
4 | not Pgp or BCRP substrates | 0.6 | – | brain penetrable | 1.3 | 8 | – | 0.24 | not Pgp or BCRP substrates | 400 | COc1ccc2ncnc(Nc3ccc(Oc4cc5ncnn5cn4)c(Cl)c3)c2c1O[C@@H]1CCN(C)CC1(F)F [Example 33, (R)—N-(4-([1,2,4]triazolo[1,5-c]pyrimidin-7-yloxy)-3-chlorophenyl)-5-((3,3-difluoro-1-methylpiperidin-4-yl)oxy)-6-methoxyquinazolin-4-amine] | 13300 | do not show hERG liability | – | –
5 | – | 0.57 | – | – | 1.1 | – | – | – | – | – | CN1CCC(Oc2cccc3ncnc(Nc4ccc(NCc5ccccn5)c(Cl)c4)c23)CC1 [Reference compound 1, 2-chloro-N^4-(5-((1-methylpiperidin-4-yl)oxy)quinazolin-4-yl)-N^1-(pyridin-2-ylmethyl)benzene-1,4-diamine, reference compound] | < 2000 | strong hERG inhibitor | – | –
6 | strong Pgp substrates | 23.8 | too low to calculate | not brain penetrable in vivo | 2.1 | – | – | – | – | – | Cc1cc(Nc2ncnc3ccc(NC4=NC(C)(C)CO4)cc23)ccc1Oc1ccn2ncnc2c1 [Reference compound 3, N4-(4-([1,2,4]triazolo[1,5-a]pyridin-7-yloxy)-3-methylphenyl)-N6-(4,4-dimethyl-4,5-dihydrooxazol-2-yl)quinazoline-4,6-diamine, reference compound] | > 10000 | – | – | –

Second part, the compound before the results:

Row | Structure (SMILES) | Pgp substrate status (P-glycoprotein (Pgp)) | efflux ratio at 2 h, 1 μM (P-glycoprotein (Pgp)) | Mouse Kpu, u [1] | brain penetration in vivo [1] | BCRP ER (BCRP) | IC50 (HER2) [nM] | IC50 (wt-EGFR) [nM] | Kp [1] | BCRP substrate status (BCRP) | IC50 (wt-EGFR; inhibition of phosphor wt-EGFR, NCI H838 cells, EGF 100 ng/ml) [nM] | IC50 (hERG channel) [nM] | hERG liability (hERG channel) | brain to blood ratio (Kp) [2] | Pgp substrate status (Pgp)
7 | Cc1cc(Nc2ncnc3ccc(NC4=NC(C)(C)CO4)cc23)ccc1Oc1ccn2ncnc2c1 [Tucatinib] | – | – | – | – | – | – | – | – | – | – | – | – | 0.02-0.05 | strong Pgp substrate
8 | CS(=O)(=O)CCNCc1ccc(-c2ccc3ncnc(Nc4ccc(OCc5cccc(F)c5)c(Cl)c4)c3c2)o1 [lapatinib] | – | – | – | – | – | – | – | – | – | – | – | – | 0.04 | strong Pgp substrates
9 | CN(C)C/C=C/C(=O)Nc1cc2c(Nc3ccc(F)c(Cl)c3)ncnc2cc1O[C@H]1CCOC1 [afatinib] | – | – | – | – | – | – | – | – | – | – | – | – | < 0.08 | strong Pgp substrates
10 | CCOc1cc2ncc(C#N)c(Nc3ccc(OCc4ccccn4)c(Cl)c3)c2cc1NC(=O)/C=C/CN(C)C [neratinib] | – | – | – | – | – | – | – | – | – | – | – | – | 0.079 | strong Pgp substrates

— patent US11723908B2, “Quinazoline derivatives as antitumor agents” (SUZHOU ZANRONG PHARMA LIMITED, priority 2018, dated 2023)
